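Growth conditions: 96-well plates. Treatment: test compound, 48 hours, 5 concentrations. Analysis: linear interpolation between bracketing concentrations; unreached endpoints set to highest concentration. GI50 = concentration required for 50% inhibition of growth.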 Calls of active or inactive are those of the source. No stated cut-off is given here; in the data, active = GI50 up to about 1.1 µM and inactive = higher.
How the values were obtained:
Test in all cases: NCI tumour cell line growth inhibition, 48 h
HOP-92 = test system: HOP-92
Hs-578T = test system: Hs-578T
SN12C = test system: SN12C
NCI-H522 = test system: NCI-H522
HT-29 = test system: HT-29
HCT-116 = test system: HCT-116
BT-549 = test system: BT-549
OVCAR-3 = test system: OVCAR-3
UACC-62 = test system: UACC-62
SW-620 = test system: SW-620
EKVX = test system: EKVX
MOLT-4 = test system: MOLT-4
M14 = test system: M14
SF-295 = test system: SF-295
PC-3 = test system: PC-3
786-0 = test system: 786-0
KM12 = test system: KM12
Malme-3M = test system: Malme-3M
A498 = test system: A498

SMILES | GI50 (HOP-92) | GI50 (Hs-578T) | GI50 (SN12C) | GI50 (NCI-H522) | GI50 (HT-29) | GI50 (HCT-116) | GI50 (BT-549) | GI50 (OVCAR-3) | GI50 (UACC-62) | GI50 (SW-620) | GI50 (EKVX) | GI50 (MOLT-4) | GI50 (M14) | GI50 (SF-295) | GI50 (PC-3) | GI50 (786-0) | GI50 (KM12) | GI50 (Malme-3M) | GI50 (A498)
CCCCc1c(OC)cc(O)c2c1C(=O)c1[nH]c(C(=O)O)c(O)c(=O)c1C2=O | 3.19 µM (inactive) | 1.82 µM (inactive) | 6.08 µM (inactive) | 2.12 µM (inactive) | > 100 µM (inactive) | 3.37 µM (inactive) | 4.47 µM (inactive) | 0.908 µM (active) | 2.28 µM (inactive) | 83 µM (inactive) | 2.34 µM (inactive) | 19.8 µM (inactive) | 4.83 µM (inactive) | 22.8 µM (inactive) | 6.12 µM (inactive) | 1.62 µM (inactive) | 29.4 µM (inactive) | – | –
COc1cc(/C=N/N=C2NCCN2)ccc1O | > 100 µM (inactive) | > 100 µM (inactive) | > 100 µM (inactive) | > 100 µM (inactive) | > 100 µM (inactive) | > 100 µM (inactive) | > 100 µM (inactive) | > 100 µM (inactive) | > 100 µM (inactive) | > 100 µM (inactive) | > 100 µM (inactive) | > 100 µM (inactive) | > 100 µM (inactive) | 68.5 µM (inactive) | > 100 µM (inactive) | > 100 µM (inactive) | > 100 µM (inactive) | > 100 µM (inactive) | –
CCOP(=O)(OCC)C(F)(F)c1ccc(CC(NC(=O)OC(C)(C)C)C(=O)O)cc1 (configuration not stated) | > 10 µM (inactive) | > 10 µM (inactive) | > 10 µM (inactive) | – | > 10 µM (inactive) | > 10 µM (inactive) | > 10 µM (inactive) | > 10 µM (inactive) | > 10 µM (inactive) | > 10 µM (inactive) | > 10 µM (inactive) | > 10 µM (inactive) | > 10 µM (inactive) | > 10 µM (inactive) | > 10 µM (inactive) | > 10 µM (inactive) | > 10 µM (inactive) | > 10 µM (inactive) | > 10 µM (inactive)
COc1cc(C2C3=C(NC(=O)C2C#N)c2ccc4ccccc4c2OCC3)cc(OC)c1OC (configuration not stated) | 10.4 µM (inactive) | 20.9 µM (inactive) | 18.1 µM (inactive) | 28.9 µM (inactive) | 33 µM (inactive) | 15.7 µM (inactive) | 17.3 µM (inactive) | 45 µM (inactive) | – | 78.7 µM (inactive) | 89.7 µM (inactive) | 34.2 µM (inactive) | 50 µM (inactive) | 27.6 µM (inactive) | 49.3 µM (inactive) | 31.5 µM (inactive) | 44.9 µM (inactive) | 17.8 µM (inactive) | 12.4 µM (inactive)
Cc1nn(-c2ccccc2)c(C)c1/C=N/NC(=O)c1sc(=S)n(-c2ccc(Cl)cc2)c1N | – | 2.4 µM (inactive) | 12.2 µM (inactive) | – | 5.05 µM (inactive) | 7.74 µM (inactive) | 21.2 µM (inactive) | 60.3 µM (inactive) | 5.98 µM (inactive) | > 100 µM (inactive) | 3.55 µM (inactive) | 8.2 µM (inactive) | 5.24 µM (inactive) | 2.71 µM (inactive) | 4.07 µM (inactive) | 3.89 µM (inactive) | 8.3 µM (inactive) | 17.5 µM (inactive) | 6.18 µM (inactive)
O=[N+]([O-])c1cccc2nnccc12 | 24.2 µM (inactive) | 51.5 µM (inactive) | 26.1 µM (inactive) | 3.71 µM (inactive) | 20.3 µM (inactive) | 12.1 µM (inactive) | 29.6 µM (inactive) | – | 13.6 µM (inactive) | 42 µM (inactive) | 36.5 µM (inactive) | 28.4 µM (inactive) | 24.3 µM (inactive) | 42.7 µM (inactive) | 31.8 µM (inactive) | 12.6 µM (inactive) | 23.7 µM (inactive) | 11.9 µM (inactive) | –
Cc1cccc(NC(=S)Nc2ccc([N+](=O)[O-])cc2)n1 | > 100 µM (inactive) | > 100 µM (inactive) | – | – | > 100 µM (inactive) | > 100 µM (inactive) | > 100 µM (inactive) | – | > 100 µM (inactive) | > 100 µM (inactive) | > 100 µM (inactive) | > 100 µM (inactive) | > 100 µM (inactive) | > 100 µM (inactive) | > 100 µM (inactive) | > 100 µM (inactive) | > 100 µM (inactive) | – | > 100 µM (inactive)
Cc1[nH]c2[nH]c(=S)nc(NC(N)=S)c2c1Cc1ccccc1 | > 100 µM (inactive) | 18.9 µM (inactive) | > 100 µM (inactive) | – | 22.3 µM (inactive) | 31.8 µM (inactive) | 14.3 µM (inactive) | 28 µM (inactive) | 29.9 µM (inactive) | 34 µM (inactive) | 48.4 µM (inactive) | 23.4 µM (inactive) | 42.3 µM (inactive) | 35.2 µM (inactive) | 47 µM (inactive) | 26.8 µM (inactive) | 16.4 µM (inactive) | – | > 100 µM (inactive)
Cc1ccnc(NS(=O)(=O)c2ccc(NC(=O)c3ccc4nc5ccccc5c(Nc5ccc(S(=O)(=O)Nc6nccc(C)n6)cc5)c4c3)cc2)n1 | 23.2 µM (inactive) | 37.3 µM (inactive) | 60.3 µM (inactive) | 39.4 µM (inactive) | > 100 µM (inactive) | 59 µM (inactive) | 14.3 µM (inactive) | 33.6 µM (inactive) | 38.3 µM (inactive) | > 100 µM (inactive) | > 100 µM (inactive) | 39.9 µM (inactive) | > 100 µM (inactive) | > 100 µM (inactive) | > 100 µM (inactive) | > 100 µM (inactive) | 29 µM (inactive) | 78.5 µM (inactive) | –
O=C(CC(=O)N1N=C(N(c2ccccc2)c2ccccc2)CC1c1ccccc1)Nc1ccc(Cl)cc1 (configuration not stated) | > 100 µM (inactive) | > 100 µM (inactive) | > 100 µM (inactive) | > 100 µM (inactive) | > 100 µM (inactive) | > 100 µM (inactive) | > 100 µM (inactive) | > 100 µM (inactive) | > 100 µM (inactive) | > 100 µM (inactive) | > 100 µM (inactive) | > 100 µM (inactive) | > 100 µM (inactive) | > 100 µM (inactive) | > 100 µM (inactive) | > 100 µM (inactive) | > 100 µM (inactive) | – | –
O=C1CC(NCCCNC2CC(=O)c3c(Br)sc(Br)c32)c2c(Br)sc(Br)c21 (configuration not stated) | 2.48 µM (inactive) | 4.58 µM (inactive) | 1.99 µM (inactive) | 1.25 µM (inactive) | 2.28 µM (inactive) | 1.36 µM (inactive) | 1.73 µM (inactive) | 1.82 µM (inactive) | 1.62 µM (inactive) | 2.31 µM (inactive) | 2.22 µM (inactive) | 0.42 µM (active) | 2 µM (inactive) | 3.78 µM (inactive) | 1.57 µM (inactive) | 0.675 µM (active) | 1.49 µM (inactive) | 1.98 µM (inactive) | –
NC(Cc1ccc(S(=O)(=O)O)cc1)C(=O)NC(Cc1ccc(S(=O)(=O)O)cc1)C(=O)NC(Cc1ccc(S(=O)(=O)O)cc1)C(=O)O (configuration not stated) | – | > 100 µM (inactive) | > 100 µM (inactive) | > 100 µM (inactive) | > 100 µM (inactive) | > 100 µM (inactive) | > 100 µM (inactive) | > 100 µM (inactive) | > 100 µM (inactive) | > 100 µM (inactive) | > 100 µM (inactive) | > 100 µM (inactive) | > 100 µM (inactive) | > 100 µM (inactive) | > 100 µM (inactive) | > 100 µM (inactive) | > 100 µM (inactive) | > 100 µM (inactive) | > 100 µM (inactive)
C/C=C/C=C\C1OC(O)([C@H](CC)C(=O)NC/C=C/C=C(\C)[C@H](OC)C(C)C2OC(\C=C/C=C/C=C(\C)C(=O)c3c(O)ccn(C)c3=O)[C@H](O)[C@@H]2O)C(O)C(O)C1(C)C (some centres not stated) | > 100 µM (inactive) | > 100 µM (inactive) | 75.3 µM (inactive) | > 100 µM (inactive) | 55 µM (inactive) | > 100 µM (inactive) | > 100 µM (inactive) | > 100 µM (inactive) | 96.2 µM (inactive) | > 100 µM (inactive) | > 100 µM (inactive) | 41.9 µM (inactive) | > 100 µM (inactive) | > 100 µM (inactive) | 64.3 µM (inactive) | 71 µM (inactive) | > 100 µM (inactive) | – | > 100 µM (inactive)
CCN(CC)CCNC(=O)c1ccc(I)cc1 | > 100 µM (inactive) | > 100 µM (inactive) | > 100 µM (inactive) | > 100 µM (inactive) | 33.3 µM (inactive) | > 100 µM (inactive) | > 100 µM (inactive) | > 100 µM (inactive) | – | > 100 µM (inactive) | > 100 µM (inactive) | > 100 µM (inactive) | > 100 µM (inactive) | > 100 µM (inactive) | > 100 µM (inactive) | > 100 µM (inactive) | > 100 µM (inactive) | > 100 µM (inactive) | 44.3 µM (inactive)
COC1=CC(=O)c2c(CCNC(=O)OCc3ccccc3)n[nH]c2C1=O | – | 24.2 µM (inactive) | 13.8 µM (inactive) | 7.78 µM (inactive) | 22.8 µM (inactive) | 12.4 µM (inactive) | 17.5 µM (inactive) | 18.1 µM (inactive) | 5.79 µM (inactive) | 19.5 µM (inactive) | 17.8 µM (inactive) | 16.8 µM (inactive) | 12.6 µM (inactive) | 20.6 µM (inactive) | 30.4 µM (inactive) | 17.5 µM (inactive) | 10 µM (inactive) | 1.76 µM (inactive) | 17.5 µM (inactive)

Reference: ChEMBL document CHEMBL1201862, “PubChem BioAssay data set” (2004)
